Source: patent US9937180B2, “Constrained tricyclic sulfonamides” (ICAHN SCHOOL OF MEDICINE AT MOUNT SINAI, priority 2014, dated 2018)
Where “and” joins values, the source holds several entries; their conditions need not be identical. Equal values may be shown once.

Key:
[1] = system: H1650; assay: H1650 Cell Viability Assays (GI50 Determination), MTT; type: cell-based; conditions: Homo sapiens, NCI-H1650, H1650 cells, 48 hours after drug treatment
Protocol: H1650 Cell Viability Assays (GI50 Determination)
Cell viability assays were performed according to Denizot, F. and R. Lang, Rapid colorimetric assay for cell growth and survival: Modifications to the tetrazolium dye procedure giving improved sensitivity and reliability Journal of Immunological Methods, 1986. 89[…]: p. 271-277.
Cells were plated at 150,000 cells per well in a 12 well plate. Twenty-four hours after plating, cells were treated as described with increasing concentrations of drug and control. Forty-eight hours after drug treatment, cells were treated with 100 uL of 3-(4,5-Dimethylthiazol-2-yl)-2,5-diphenyltetrazolium bromide (MTT) and incubated for 2 hours at 37 C. The MTT solution was subsequently replaced with 300 uL of n-propyl alcohol and re-aliquoted to a 96 well plates. Spectrophotometric analysis of each solution was performed using a 96 well plate reader at 600 nm in triplicate.

[2] = system: Molt4 cells; assay: MTS Cell Proliferation Assay (CellTiter96 AQueous); type: cell-based; conditions: Homo sapiens, MOLT-4, 48 hours, average of 3 biological replicates
Protocol: MTS Cell Proliferation Assay GI50 for Example 3a and 3b for Molt4 cells was measured using the CellTiter96 AQueous Non-Radioactive Cell Proliferation Assay (Promega). Briefly, two technical replicates of 1×10^5 cells suspended in 50 μL RPMI-1640 media were pipetted per well into a 96-well plate for each condition. An equal volume of Example 3a or 3b was dissolved in media or vehicle control (DMSO) was added to each well for final concentration of 0, 5, 10, 15, 20, 30, 40, or 80 μM of 3a or 3b. Cells were allowed to grow for 48 hours at 37° C. with 5% CO2, after which 20 μL of MTS/PMS solution was added to each well and cells were incubated for an additional 4 hrs. At the end of the incubation period, A490 was read on a Biotek uQuant spectrophotometer to measure formazen production. Relative viability was calculated as A490 for each drug condition relative to vehicle alone.

[3] = system: prostate cancer cell line LNCaP; assay: Mouse Tumor Assay: subcutaneous xenograft of prostate cancer cell line LNCaP; type: in vivo; conditions: LNCaP xenograft in male SCID nude castrated mice, 100 mg/kg BID oral gavage
Protocol: (§1) Mouse Tumor Assay To assess the in vivo effects of the compounds, subcutaneous xenograft of prostate cancer cell line LNCaP was generated. Cells (5×10^6, 0.1 mL in 1:1 Matrigel:Media) were injected into the right flank of 8-week-old male SCID nude castrated mice (NCI). Tumor volume was assessed three times a week by caliper measurement. Mice were randomized to treatment groups based on initial tumor volume average of 247 mm^3 per group. Mice were dosed by oral gauvage with 100 mg/kg of Example 3a twice daily (BID) as a suspension in 0.1% Tween80/0.5% sodium carboxymethylcellulose (CMC) in water. […] Mouse body weights were recorded weekly and percentage of mice body weights during treatment was calculated as: weight at each time point/initial weight×100. […] Mice underwent treatment for 31 days and were sacrificed 2 hours after the last dose. Tumors were then excised and cut for both formalin-fixation and snap frozen in liquid nitrogen. No statistically significant toxicity was observed as judged from animal body weights of compound treated groups versus vehicle control group.

[4] = Observation for signs of toxicity and body weights in the mouse tumor assay; type: in vivo; conditions: mice, 100 mg/kg BID oral, 31 days
Protocol: as §1, with “To” for “Mouse Tumor Assay To”

Row | Compound | GI50 [1] | also measured
1 | O=S(=O)(N[C@@H]1CCC(N2c3ccccc3CCc3ccccc32)[C@H]1O)c1ccc(Cl)cc1 (relative stereo) [Example 18, 4-chloro-N-((1S,2S,3R)-rel-3-(10,11-dihydro-5H-dibenzo[b,f]azepin-5-yl)-2-hydroxycyclopentyl)benzenesulfonamide] | 20 µM | 
2 | O=S(=O)(N[C@H]1CCC[C@@H](N2c3ccccc3CCc3ccccc32)[C@@H]1O)c1ccc(OC(F)F)cc1 (stereo in doubt) [Example 32, 4-(difluoromethoxy)-N-(3-(10,11-dihydro-5H-dibenzo[b,f]azepin-5-yl)-2-hydroxycyclohexyl)benzenesulfonamide] | 10 µM | 
3 | O=S(=O)(N[C@@H]1CCCC(N2c3ccccc3CCc3ccccc32)[C@H]1O)c1ccc(OC(F)(F)F)cc1 (relative stereo) [Example 1, N-((1,2-trans)-3-(10,11-dihydro-5H-dibenzo[b,f]azepin-5-yl)-2-hydroxycyclohexyl)-4-(trifluoromethoxy)benzenesulfonamide] | 5 µM | 
4 | O=S(=O)(N[C@H]1CCC[C@@H](N2c3ccccc3CCc3ccccc32)[C@@H]1O)c1ccc(CC(F)(F)F)cc1 [Example 30, N-(3-(10,11-dihydro-5H-dibenzo[b,f]azepin-5-yl)-2-hydroxycyclohexyl)-4-(2,2,2-trifluoroethyl)benzenesulfonamide] | 5 µM | 
5 | O=S(=O)(N[C@@H]1CCCC(N2c3ccccc3Sc3ccccc32)[C@H]1O)c1ccc(Cl)cc1 (relative stereo) [Example 21, 4-chloro-N-((1R,2R,3S)-rel-2-hydroxy-3-(10H-phenothiazin-10-yl)cyclohexyl)benzenesulfonamide] | 10 µM | 
6 | O=S(=O)(N[C@H]1CCC[C@@H](N2c3ccccc3CCc3ccccc32)[C@@H]1O)c1ccc(OC(F)(F)F)cc1Cl (stereo in doubt) [Example 29, 2-chloro-N-(3-(10,11-dihydro-5H-dibenzo[b,f]azepin-5-yl)-2-hydroxycyclohexyl)-4-(trifluoromethoxy)benzenesulfonamide] | 5 µM | 
7 | O=S(=O)(N[C@@H]1CCC(N2c3ccccc3CCc3ccccc32)[C@H]1O)c1ccc(OC(F)(F)F)cc1 (relative stereo) [Example 17, N-((1S,2S,3R)-rel-3-(10,11-dihydro-5H-dibenzo[b,f]azepin-5-yl)-2-hydroxycyclopentyl)-4-(trifluoromethoxy)benzenesulfonamide] | 15 µM | 
8 | O=S(=O)(N[C@H]1CCC[C@@H](N2c3ccc(F)cc3CCc3cc(F)ccc32)[C@@H]1O)c1ccc(OC(F)(F)F)cc1 [Example 22, N-((1S,2S,3R)-3-(2,8-difluoro-10,11-dihydro-5H-dibenzo[b,f]azepin-5-yl)-2-hydroxycyclohexyl)-4-(trifluoromethoxy)benzenesulfonamide] | 7 µM | 
9 | O=S(=O)(N[C@H]1CCC[C@@H](N2c3ccccc3CCc3ccccc32)[C@@H]1O)c1ccc(OC(F)(F)F)c(Cl)c1 (stereo in doubt) [Example 33, 3-chloro-N-(3-(10,11-dihydro-5H-dibenzo[b,f]azepin-5-yl)-2-hydroxycyclohexyl)-4-(trifluoromethoxy)benzenesulfonamide] | 5 µM | 
10 | O=S(=O)(N[C@H]1CCC[C@@H](N2c3ccccc3C=Cc3ccccc32)[C@@H]1O)c1ccc(OC(F)(F)F)cc1 (racemic) [Example 25, rac-N-((1S,2S,3R)-3-(5H-dibenzo[b,f]azepin-5-yl)-2-hydroxycyclohexyl)-4-(trifluoromethoxy)benzenesulfonamide] | 10 µM | 
11 | O=S(=O)(N[C@@H]1CCCC(N2c3ccccc3Sc3ccccc32)[C@H]1O)c1ccc(OC(F)(F)F)cc1 (relative stereo) [Example 20, N-((1R,2R,3S)-rel-2-hydroxy-3-(10H-phenothiazin-10-yl)cyclohexyl)-4-(trifluoromethoxy)benzenesulfonamide] | 5 µM | 
12 | O=S(=O)(N[C@H]1CCC[C@@H](N2c3ccccc3CCc3cc(F)ccc32)[C@@H]1O)c1ccc(OC(F)(F)F)cc1 [Example 24, N-((1S,2S,3R)-3-(2-fluoro-10,11-dihydro-5H-dibenzo[b,f]azepin-5-yl)-2-hydroxycyclohexyl)-4-(trifluoromethoxy)benzenesulfonamide] | 5 µM | 
13 | O=S(=O)(N[C@H]1CCC[C@@H](N2c3ccccc3CCc3ccccc32)[C@@H]1O)c1ccc(OC(F)(F)F)cc1 [Example 3a] | 5 µM | GI50 [2]: 6 µM; Mean Tumor Volume(T) ([3]; 31 days): 485 mm³; % T/C ([3]; end of experiment (31 days), tumor versus vehicle control, 100 mg/kg): 35% and 34.6%; signs of toxicity (mucous diarrhea, abdominal stiffness and weight loss) [4]: no adverse signs were observed

Second part, led by results:

Row | GI50 [1] | Compound | also measured
14 | 10 µM | O=S(=O)(N[C@@H]1CCCC(N2c3ccccc3CCc3ccccc32)[C@H]1O)c1ccc(Cl)cc1 (relative stereo) [Example 4, N-(3-(10,11-dihydro-5H-dibenzo[b,f]azepin-5-yl)-2-hydroxycyclohexyl)-4-(chloro)benzenesulfonamide] | 
15 | 5 µM | O=S(=O)(N[C@H]1CCC[C@@H](N2c3ccccc3CCc3ccccc32)[C@@H]1O)c1ccc(C(F)(F)C(F)(F)F)cc1 [Example 31, N-(3-(10,11-dihydro-5H-dibenzo[b,f]azepin-5-yl)-2-hydroxycyclohexyl)-4-(perfluoroethyl)benzenesulfonamide] | 
16 | 5 µM | O=S(=O)(N[C@@H]1CCC[C@H](N2c3ccccc3CCc3ccccc32)[C@H]1O)c1ccc(OC(F)(F)F)cc1 [Example 3b] | GI50 [2]: 8 µM
17 | 5 µM | O=S(=O)(N[C@H]1CCC[C@@H](N2c3ccccc3CCc3ccccc32)[C@@H]1O)c1ccc(SC(F)(F)F)cc1 [Example 28, N-(3-(10,11-dihydro-5H-dibenzo[b,f]azepin-5-yl)-2-hydroxycyclohexyl)-4-((trifluoromethyl)thio)benzenesulfonamide] | 
18 | 20 µM | CC(=O)c1ccc(S(=O)(=O)N[C@H]2CCC[C@@H](N3c4ccccc4CCc4ccccc43)[C@@H]2O)cc1 [Example 26, 4-Acetyl-N-((1S,2S,3R)-3-(10,11-dihydro-5H-dibenzo[b,f]azepin-5-yl)-2-hydroxycyclohexyl)benzenesulfonamide] | 
19 | 15 µM | [N-]=[N+]=Nc1ccc(S(=O)(=O)N[C@@H]2CCCC(N3c4ccccc4CCc4ccccc43)[C@H]2O)cc1 (stereo in doubt) [Example 5, N-(3-(10,11-dihydro-5H-dibenzo[b,f]azepin-5-yl)-2-hydroxycyclohexyl)-4-(azido)benzenesulfonamide] | 
20 | 20 µM | COc1ccc(S(=O)(=O)N[C@H]2CCC[C@@H](N3c4ccccc4CCc4ccccc43)[C@@H]2O)cc1 [Example 23, N-((1S,2S,3R)-3-(10,11-dihydro-5H-dibenzo[b,f]azepin-5-yl)-2-hydroxycyclohexyl)-4-methoxybenzenesulfonamide] | 
21 | 15 µM | CC(C)(O)c1ccc(S(=O)(=O)N[C@H]2CCC[C@@H](N3c4ccccc4CCc4ccccc43)[C@@H]2O)cc1 [Example 27, N-((1S,2S,3R)-3-(10,11-dihydro-5H-dibenzo[b,f]azepin-5-yl)-2-hydroxycyclohexyl)-4-(2-hydroxypropan-2-yl)benzenesulfonamide] | 
22 | 15 µM | O=S(=O)(N[C@H]1CCCC(N2c3ccccc3CCc3ccccc32)[C@@H]1O)c1ccc(OC(F)(F)F)cc1 (relative stereo) [Example 2, N-((1,2-trans)-3-(10,11-dihydro-5H-dibenzo[b,f]azepin-5-yl)-2-hydroxycyclohexyl)-4-(trifluoromethoxy)benzenesulfonamide] | 
